EP0369657A2, “Chromogenic substrate for esterase and immunoassay using same” (Becton Dickinson and Company, priority 1988, dated 1990)

System: rabbit liver esterase (RLE)
Test: Stopping of DCIPB color formation in the dual enzyme assay for Influenza A
Assay type: biochemical
Conditions: added after five minute incubation with DCIPB; TFAP as 40 µL of 1 mM in 50 mM Tris, pH 7.5; read at 620 nm
Description: A mixture of the blocked inhibitor from Example II (1 x 10⁻⁴M) and rabbit liver esterase (RLE) (5 x 10⁻⁹M) in 50 mM diethanolamine (DEOA), pH 9.0 was added to each well (150 µL), and incubated at room temperature for 20 minutes.
A solution of DCIPB (0.35 mM in 50 mM Tris, pH 7.5, containing 20% methanol) was added to each well (150 µL). After a five minute incubation, 40 µL of a solution of 1 mM 1,1,1-trifluoroacetophenone (TFAP) in 50 mM Tris, pH 7.5, was added to stop the reaction.
The same effect was achieved by the addition of free inhibitor (product B from Example II). After "stopping," test wells having a high concentration of antigen remained colorless for several hours.

| SMILES | effect on color formation process |
| --- | --- |
| O=C(c1ccccc1)C(F)(F)F [1,1,1-trifluoroacetophenone (TFAP), 1,1,1-trifluoroacetophenone] | stopped the color formation process |
| O=C(CCc1ccc(O)cc1)C(F)(F)F [compound 3, 1,1,1-trifluoro-4-(4-hydroxyphenyl)-2-butanone] | same effect |
